Source: ChEMBL document CHEMBL1201861, “Genomics of Drug Sensitity in Cancer screening data, Wellcome Trust Sanger Institute”

Experiments:
[1] = system: DOK; assay: cells; type: functional, cell-based; settings: Homo sapiens;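 also: cell viability assay read-out, values reflect inhibition of cell growth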
Description: SANGER: Inhibition of human DOK cell growth in a cell viability assay.

[2] = system: Daudi; assay: cells; type: functional, cell-based, Homo sapiens; settings: Homo sapiens, Daudi;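 also: growth inhibition of Daudi cells, read out by a viability assay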
Description: SANGER: Inhibition of human Daudi cell growth in a cell viability assay.

[3] = system: CAL-51; assay: cells; type: functional, cell-based; settings: Homo sapiens;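 also: human CAL-51 cell line, growth inhibition read out via a cell viability assay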
Description: SANGER: Inhibition of human CAL-51 cell growth in a cell viability assay.

[4] = system: LP-1; assay: cells; type: functional, cell-based, Homo sapiens; settings: Homo sapiens, LP-1;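 also: growth inhibition of human LP-1 cells, with the read-out taken from a cell viability assay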
Description: SANGER: Inhibition of human LP-1 cell growth in a cell viability assay.

[5] = system: L-540; assay: cells; type: functional, cell-based, Homo sapiens; settings: Homo sapiens, L-540;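 also: growth inhibition of the human L-540 cell line, read out with a viability assay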
Description: SANGER: Inhibition of human L-540 cell growth in a cell viability assay.

[6] = system: SW1573; assay: cells; type: functional, cell-based; settings: Homo sapiens;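 also: growth inhibition of SW1573 cells, read out with a cell viability assay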
Description: SANGER: Inhibition of human SW1573 cell growth in a cell viability assay.

[7] = system: COLO-678; assay: cells; type: functional, cell-based; settings: Homo sapiens
Description: SANGER: Inhibition of human COLO-678 cell growth in a cell viability assay.

[8] = system: HSC-2; assay: cells; type: functional, cell-based; settings: Homo sapiens;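 also: growth inhibition of human HSC-2 cells, read out by a cell viability assay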
Description: SANGER: Inhibition of human HSC-2 cell growth in a cell viability assay.

[9] = system: NCI-H1573; assay: cells; type: functional, cell-based; settings: Homo sapiens;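 also: growth inhibition of NCI-H1573 cells, read out with a cell viability assay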
Description: SANGER: Inhibition of human NCI-H1573 cell growth in a cell viability assay.

[10] = system: SN12C; assay: cells; type: functional, cell-based; settings: Homo sapiens;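 also: growth inhibition of human SN12C cells, measured by a cell viability assay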
Description: SANGER: Inhibition of human SN12C cell growth in a cell viability assay.

[11] = system: RERF-LC-MS; assay: cells; type: functional, cell-based; settings: Homo sapiens;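 also: growth inhibition of human RERF-LC-MS cells, read out by a cell viability assay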
Description: SANGER: Inhibition of human RERF-LC-MS cell growth in a cell viability assay.

[12] = system: Detroit 562; assay: cells; type: functional, cell-based; settings: Homo sapiens;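 also: growth inhibition of human Detroit 562 cells, read out by a cell viability assay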
Description: SANGER: Inhibition of human Detroit562 cell growth in a cell viability assay.

[13] = system: ME-180; assay: cells; type: functional, cell-based; settings: Homo sapiens;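 also: cell viability assay measuring growth inhibition of ME-180 cells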
Description: SANGER: Inhibition of human ME-180 cell growth in a cell viability assay.

[14] = system: CA46; assay: cells; type: functional, cell-based, Homo sapiens; settings: Homo sapiens, CA46;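 also: growth inhibition of human CA46 cells, read out by a cell viability assay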
Description: SANGER: Inhibition of human CA46 cell growth in a cell viability assay.

[15] = system: Daoy; assay: cells; type: functional, cell-based; settings: Homo sapiens;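 also: daoy cell growth inhibition, read out as cell viability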
Description: SANGER: Inhibition of human Daoy cell growth in a cell viability assay.

[16] = system: ACHN; assay: cells; type: functional, cell-based; settings: Homo sapiens;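 also: cell viability read-out used to gauge how strongly growth of human ACHN cells is suppressed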
Description: SANGER: Inhibition of human ACHN cell growth in a cell viability assay.

[17] = system: HC-1; assay: cells; type: functional, cell-based, Homo sapiens; settings: Homo sapiens, HC-1;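 also: growth inhibition of HC-1 cells measured by a cell viability assay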
Description: SANGER: Inhibition of human HC-1 cell growth in a cell viability assay.

[18] = system: BFTC-909; assay: cells; type: functional, cell-based; settings: Homo sapiens
Description: SANGER: Inhibition of human BFTC-909 cell growth in a cell viability assay.

[19] = system: KP-4; assay: cells; type: functional, cell-based; settings: Homo sapiens;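 also: human KP-4 cells, with growth inhibition read out through a cell viability assay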
Description: SANGER: Inhibition of human KP-4 cell growth in a cell viability assay.

[20] = system: RCM-1; assay: cells; type: functional, cell-based; settings: Homo sapiens;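 also: growth inhibition of the RCM-1 line, determined with a cell viability readout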
Description: SANGER: Inhibition of human RCM-1 cell growth in a cell viability assay.

[21] = system: YAPC; assay: cells; type: functional, cell-based; settings: Homo sapiens;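 also: growth inhibition of YAPC cells, measured with a cell viability assay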
Description: SANGER: Inhibition of human YAPC cell growth in a cell viability assay.

[22] = system: CAL-72; assay: cells; type: functional, cell-based; settings: Homo sapiens;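 also: cell viability assay measuring inhibition of proliferation in the CAL-72 cell line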
Description: SANGER: Inhibition of human CAL-72 cell growth in a cell viability assay.

[23] = system: NCI-H748; assay: cells; type: functional, cell-based, Homo sapiens; settings: Homo sapiens, NCI-H748;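 also: growth inhibition of NCI-H748 cells, measured by a cell viability assay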
Description: SANGER: Inhibition of human NCI-H748 cell growth in a cell viability assay.

[24] = system: LOUCY; assay: cells; type: functional, cell-based, Homo sapiens; settings: Homo sapiens, LOUCY;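 also: growth inhibition of human LOUCY cells, read out with a cell viability assay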
Description: SANGER: Inhibition of human LOUCY cell growth in a cell viability assay.

[25] = system: KOSC-2; assay: cells; type: functional, cell-based; settings: Homo sapiens;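 also: growth inhibition of KOSC-2 cells, read out by a cell viability assay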
Description: SANGER: Inhibition of human KOSC-2 cell growth in a cell viability assay.

[26] = system: HMV-2 cell line; assay: cells; type: functional, cell-based; settings: Homo sapiens;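 also: growth inhibition of HMV-II cells, read out with a cell viability assay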
Description: SANGER: Inhibition of human HMV-II cell growth in a cell viability assay.

[27] = system: EB2; assay: cells; type: functional, cell-based, Homo sapiens; settings: Homo sapiens, EB2;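 also: growth inhibition of EB2 cells, read out with a cell viability assay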
Description: SANGER: Inhibition of human EB2 cell growth in a cell viability assay.

[28] = system: MDA-MB-453; assay: cells; type: functional, cell-based; settings: Homo sapiens
Description: SANGER: Inhibition of human MDA-MB-453 cell growth in a cell viability assay.

[29] = system: SK-LU-1; assay: cells; type: functional, cell-based; settings: Homo sapiens;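 also: cell viability assay measuring growth inhibition of human SK-LU-1 cells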
Description: SANGER: Inhibition of human SK-LU-1 cell growth in a cell viability assay.

[30] = system: NCI-H1755; assay: cells; type: functional, cell-based; settings: Homo sapiens;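 also: cell viability readout used to measure growth inhibition of NCI-H1755 cells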
Description: SANGER: Inhibition of human NCI-H1755 cell growth in a cell viability assay.

[31] = system: NCI-H650; assay: cells; type: functional, cell-based; settings: Homo sapiens;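 also: growth inhibition of NCI-H650 cells, read out by a viability assay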
Description: SANGER: Inhibition of human NCI-H650 cell growth in a cell viability assay.

[32] = system: KMS-12-PE; assay: cells; type: functional, cell-based, Homo sapiens; settings: Homo sapiens, KMS-12-PE;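 also: growth inhibition of human KMS-12-PE cells, measured with a cell viability assay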
Description: SANGER: Inhibition of human KMS-12-PE cell growth in a cell viability assay.

[33] = system: J82; assay: cells; type: functional, cell-based; settings: Homo sapiens;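 also: growth inhibition of J82 cells, read out with a cell viability assay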
Description: SANGER: Inhibition of human J82 cell growth in a cell viability assay.

[34] = system: RD; assay: cells; type: functional, cell-based; settings: Homo sapiens
Description: SANGER: Inhibition of human RD cell growth in a cell viability assay.

[35] = system: PF-382; assay: cells; type: functional, cell-based, Homo sapiens; settings: Homo sapiens, PF-382
Description: SANGER: Inhibition of human PF-382 cell growth in a cell viability assay.

[36] = system: OAW-28; assay: cells; type: functional, cell-based; settings: Homo sapiens;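 also: growth inhibition of OAW-28 cells, read out with a cell viability assay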
Description: SANGER: Inhibition of human OAW-28 cell growth in a cell viability assay.

[37] = system: LoVo; assay: cells; type: functional, cell-based; settings: Homo sapiens;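 also: growth inhibition of human LoVo cells, read out with a cell viability assay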
Description: SANGER: Inhibition of human LoVo cell growth in a cell viability assay.

[38] = system: COR-L279; assay: SANGER: Inhibition of human COR-L279 cell growth in a cell viability assay.; type: functional, cell-based; settings: Homo sapiens, COR-L279
[39] = system: LN-405; assay: cells; type: functional, cell-based; settings: Homo sapiens
Description: SANGER: Inhibition of human LN-405 cell growth in a cell viability assay.

[40] = system: CAPAN-1; assay: cells; type: functional, cell-based; settings: Homo sapiens;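 also: growth suppression of CAPAN-1 cells, read out by a cell viability assay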
Description: SANGER: Inhibition of human CAPAN-1 cell growth in a cell viability assay.

[41] = system: EFO-21; assay: cells; type: functional, cell-based; settings: Homo sapiens;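 also: growth inhibition of EFO-21 cells measured with a viability assay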
Description: SANGER: Inhibition of human EFO-21 cell growth in a cell viability assay.

[42] = system: SW1463; assay: cells; type: functional, cell-based; settings: Homo sapiens;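 also: growth inhibition of SW1463 cells, determined with a cell viability assay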
Description: SANGER: Inhibition of human SW1463 cell growth in a cell viability assay.

[43] = system: HN; assay: cells; type: functional, cell-based; settings: Homo sapiens
Description: SANGER: Inhibition of human HN cell growth in a cell viability assay.

[44] = system: HT-29; assay: cells; type: functional, cell-based; settings: Homo sapiens;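 also: growth inhibition of human HT-29 cells, read out by a cell viability assay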
Description: SANGER: Inhibition of human HT-29 cell growth in a cell viability assay.

[45] = system: HCT-15; assay: cells; type: functional, cell-based; settings: Homo sapiens;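 also: cell viability readout, IC50 reflecting suppression of HCT-15 cell growth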
Description: SANGER: Inhibition of human HCT-15 cell growth in a cell viability assay.

[46] = system: THP-1; assay: cells; type: functional, cell-based, Homo sapiens; settings: Homo sapiens, THP-1;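 also: growth inhibition of THP-1 cells, read out via a cell viability assay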
Description: SANGER: Inhibition of human THP-1 cell growth in a cell viability assay.

[47] = system: D-542MG; assay: cells; type: functional, cell-based; settings: Homo sapiens
Description: SANGER: Inhibition of human D-542MG cell growth in a cell viability assay.

[48] = system: MCF7; assay: cells; type: functional, cell-based; settings: Homo sapiens;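 also: growth inhibition of human MCF7 cells, read out with a cell viability assay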
Description: SANGER: Inhibition of human MCF7 cell growth in a cell viability assay.

[49] = system: NCI-H358; assay: cells; type: functional, cell-based; settings: Homo sapiens;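 also: growth inhibition of NCI-H358 human cells, read out with a cell viability assay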
Description: SANGER: Inhibition of human NCI-H358 cell growth in a cell viability assay.

[50] = system: Huh-7; assay: cells; type: functional, cell-based; settings: Homo sapiens;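 also: HuH-7 cell growth inhibition, read out with a cell viability assay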
Description: SANGER: Inhibition of human HuH-7 cell growth in a cell viability assay.

[51] = system: NCI-H810; assay: cells; type: functional, cell-based; settings: Homo sapiens;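 also: IC50 reflects inhibition of cancer cell line growth, read out with a cell viability assay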
Description: SANGER: Inhibition of human NCI-H810 cell growth in a cell viability assay.

[52] = system: 23132-87; assay: cells; type: functional, cell-based; settings: Homo sapiens
Description: SANGER: Inhibition of human 23132-87 cell growth in a cell viability assay.

[53] = system: BC-3; assay: cells; type: functional, cell-based, Homo sapiens; settings: Homo sapiens, BC-3;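 also: cell viability assay measuring growth inhibition of human BC-3 cells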
Description: SANGER: Inhibition of human BC-3 cell growth in a cell viability assay.

[54] = system: LCLC-97TM1; assay: cells; type: functional, cell-based; settings: Homo sapiens;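 also: cell viability assay measuring growth inhibition of human LCLC-97TM1 cells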
Description: SANGER: Inhibition of human LCLC-97TM1 cell growth in a cell viability assay.

[55] = system: CAL-39; assay: cells; type: functional, cell-based; settings: Homo sapiens;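 also: cell viability assay measuring growth inhibition of CAL-39 cells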
Description: SANGER: Inhibition of human CAL-39 cell growth in a cell viability assay.

[56] = system: SNU-387; assay: cells; type: functional, cell-based; settings: Homo sapiens
Description: SANGER: Inhibition of human SNU-387 cell growth in a cell viability assay.

[57] = system: Panc1005; assay: cells; type: functional, cell-based; settings: Homo sapiens;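 also: growth inhibition of human PANC-10-05 cells, measured by a cell viability assay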
Description: SANGER: Inhibition of human PANC-10-05 cell growth in a cell viability assay.

[58] = system: SW1710; assay: cells; type: functional, cell-based; settings: Homo sapiens;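 also: growth inhibition of SW1710 cells, determined with a cell viability assay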
Description: SANGER: Inhibition of human SW1710 cell growth in a cell viability assay.

[59] = system: SIMA; assay: cells; type: functional, cell-based, Homo sapiens; settings: Homo sapiens, SIMA;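 also: growth inhibition of SIMA cells, measured with a cell viability readout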
Description: SANGER: Inhibition of human SIMA cell growth in a cell viability assay.

[60] = system: NCI-H28; assay: cells; type: functional, cell-based; settings: Homo sapiens;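 also: growth inhibition of human NCI-H28 cells, read out as cell viability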
Description: SANGER: Inhibition of human NCI-H28 cell growth in a cell viability assay.

[61] = system: NCI-H2087; assay: cells; type: functional, cell-based; settings: Homo sapiens;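 also: growth inhibition determined with a cell viability readout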
Description: SANGER: Inhibition of human NCI-H2087 cell growth in a cell viability assay.

[62] = system: SW1417; assay: cells; type: functional, cell-based; settings: Homo sapiens
Description: SANGER: Inhibition of human SW1417 cell growth in a cell viability assay.

## CCCCCCCCCCCC1=C(O)C(=O)C=C(O)C1=O [EMBELIN]
[1]
  IC50: 11.8 µM
[2]
  IC50: 5.75 µM
[3]
  IC50: 5.37 µM
[4]
  IC50: > 32 µM
[5]
  IC50: 8.42 µM
[6]
  IC50: > 32 µM
[7]
  IC50: > 32 µM
[8]
  IC50: 7.4 µM
[9]
  IC50: 14.2 µM
[10]
  IC50: 26.6 µM
[11]
  IC50: 30.6 µM
[12]
  IC50: 11.5 µM
[13]
  IC50: 30.6 µM
[14]
  IC50: 18.7 µM
[15]
  IC50: 5.46 µM
[16]
  IC50: > 32 µM
[17]
  IC50: 5.4 µM
[18]
  IC50: > 32 µM
[19]
  IC50: > 32 µM
[20]
  IC50: 22.4 µM
[21]
  IC50: > 32 µM
[22]
  IC50: 10.4 µM
[23]
  IC50: > 32 µM
[24]
  IC50: 5.1 µM
[25]
  IC50: > 32 µM
[26]
  IC50: 4.61 µM
[27]
  IC50: 6.17 µM
[28]
  IC50: > 32 µM
[29]
  IC50: 7.21 µM
[30]
  IC50: > 32 µM
[31]
  IC50: 16.4 µM
[32]
  IC50: > 32 µM
[33]
  IC50: 11.8 µM
[34]
  IC50: 15.3 µM
[35]
  IC50: 6.17 µM
[36]
  IC50: 20 µM
[37]
  IC50: 3.87 µM
[38]
  IC50: > 32 µM
[39]
  IC50: 18.8 µM
[40]
  IC50: 9.01 µM
[41]
  IC50: 15.6 µM
[42]
  IC50: > 32 µM
[43]
  IC50: 24.8 µM
[44]
  IC50: 7.52 µM
[45]
  IC50: 9.25 µM
[46]
  IC50: 29.8 µM
[47]
  IC50: 3.13 µM
[48]
  IC50: 8.35 µM
[49]
  IC50: 11.1 µM
[50]
  IC50: > 32 µM
[51]
  IC50: 7.73 µM
[52]
  IC50: 23.3 µM
[53]
  IC50: > 32 µM
[54]
  IC50: 5.96 µM
[55]
  IC50: 4.48 µM
[56]
  IC50: 27.2 µM
[57]
  IC50: > 32 µM
[58]
  IC50: 14.1 µM
[59]
  IC50: 6.37 µM
[60]
  IC50: 26 µM
[61]
  IC50: 5.45 µM
[62]
  IC50: > 32 µM

## OC[C@H](Cc1ccccc1)Nc1nc(Oc2ccc3c(c2)CCC3)nc2c1ncn2Cc1ccc(-c2ccccc2)cc1
[1]
  IC50: > 10.2 µM
[2]
  IC50: > 10.2 µM
[3]
  IC50: 2.23 µM
[4]
  IC50: > 10.2 µM
[5]
  IC50: > 10.2 µM
[6]
  IC50: > 10.2 µM
[7]
  IC50: > 10.2 µM
[8]
  IC50: > 10.2 µM
[9]
  IC50: > 10.2 µM
[10]
  IC50: > 10.2 µM
[11]
  IC50: > 10.2 µM
[12]
  IC50: > 10.2 µM
[13]
  IC50: > 10.2 µM
[14]
  IC50: > 10.2 µM
[15]
  IC50: 2.93 µM
[16]
  IC50: > 10.2 µM
[17]
  IC50: > 10.2 µM
[18]
  IC50: > 10.2 µM
[19]
  IC50: > 10.2 µM
[20]
  IC50: > 10.2 µM
[21]
  IC50: > 10.2 µM
[22]
  IC50: > 10.2 µM
[23]
  IC50: > 10.2 µM
[24]
  IC50: > 10.2 µM
[25]
  IC50: > 10.2 µM
[26]
  IC50: 6.34 µM
[27]
  IC50: > 10.2 µM
[28]
  IC50: > 10.2 µM
[29]
  IC50: > 10.2 µM
[30]
  IC50: > 10.2 µM
[31]
  IC50: 7.39 µM
[32]
  IC50: > 10.2 µM
[33]
  IC50: 9.51 µM
[34]
  IC50: > 10.2 µM
[35]
  IC50: > 10.2 µM
[36]
  IC50: > 10.2 µM
[37]
  IC50: 4.56 µM
[38]
  IC50: > 10.2 µM
[39]
  IC50: > 10.2 µM
[40]
  IC50: > 10.2 µM
[41]
  IC50: > 10.2 µM
[42]
  IC50: > 10.2 µM
[43]
  IC50: 8.17 µM
[44]
  IC50: 8.45 µM
[45]
  IC50: 2.49 µM
[46]
  IC50: > 10.2 µM
[47]
  IC50: > 10.2 µM
[48]
  IC50: 2.26 µM
[49]
  IC50: > 10.2 µM
[50]
  IC50: > 10.2 µM
[51]
  IC50: 3.89 µM
[52]
  IC50: 6.07 µM
[53]
  IC50: 6.66 µM
[54]
  IC50: 6.43 µM
[55]
  IC50: > 10.2 µM
[56]
  IC50: > 10.2 µM
[57]
  IC50: > 10.2 µM
[58]
  IC50: 1.43 µM
[59]
  IC50: > 10.2 µM
[60]
  IC50: > 10.2 µM
[61]
  IC50: > 10.2 µM
[62]
  IC50: > 10.2 µM
